Reference: patent US7470680B2, “Constrained compounds as CGRP-receptor antagonists” (Bristol-Myers Squibb Company, priority 2006, dated 2008)

Target: CGRP receptor (Homo sapiens, UniProt O60894+Q16602)
Assay: CGRP radioligand binding assay ([125I]-CGRP displacement, SK-N-MC homogenate)
Set-up: endogenous in cells; host or cells: SK-N-MC cells (homogenate/membrane pellet)
Conditions: displacement of [125I]-CGRP, SK-N-MC membranes
Description: CGRP Binding Assay. Tissue Culture. SK-N-MC cells were grown at 37° C. in 5% CO2 as a monolayer in medium consisting of MEM with Earle's salts and L-glutamine (Gibco) supplemented with 10% fetal bovine serum (Gibco). Cell Pellets. The cells were rinsed twice with phosphate-buffered saline (155 mM NaCl, 3.3 mM Na2HPO4, 1.1 mM KH2PO4, pH 7.4), and incubated for 5-10 min. at 4° C. in hypotonic lysis buffer consisting of 10 mM Tris (pH 7.4) and 5 mM EDTA. The cells were transferred from plates to polypropylene tubes (16×100 mm) and homogenized using a polytron. Homogenates were centrifuged at 32,000×g for 30 min. The pellets were resuspended in cold hypotonic lysis buffer with 0.1% mammalian protease inhibitor cocktail (Sigma) and assayed for protein concentration. The SK-N-MC homogenate was then aliquoted and stored at −80° C. until needed.
Radioligand Binding Assay. The compounds of invention were solubilized and carried through serial dilutions using 100% DMSO. Aliquots from the compound serial dilutions were further diluted 25 fold into assay buffer (50 mM Tris-Cl pH 7.5, 5 mM MgCl2, 0.005% Triton X-100) and transferred (volume 50 μl) into 96 well assay plates. [^125I]-CGRP (Amersham Biosciences) was diluted to 60 pM in assay buffer and a volume of […] was added to each well. SK-N-MC pellets were thawed, diluted in assay buffer with fresh 0.1% mammalian protease inhibitor cocktail (Sigma), and homogenized again. SK-N-MC homogenate (5 μg/well) was added in a volume of 100 μl. The assay plates were then incubated at room temperature for 2 h. Assays were stopped by addition of excess cold wash buffer (20 mM Tris-Cl pH 7.5, 0.1% BSA) immediately followed by filtration over glass fiber filters (Whatman GF/B) previously soaked in 0.5% PEI. Non-specific binding was defined with 1 μM beta-CGRP. Protein bound radioactivity was determined using a gamma or scintillation counter. The IC50 was defined as the concentration of a compound of invention required to displace 50% of radioligand binding.

CGRP receptor, sequence (Q16602 23-461): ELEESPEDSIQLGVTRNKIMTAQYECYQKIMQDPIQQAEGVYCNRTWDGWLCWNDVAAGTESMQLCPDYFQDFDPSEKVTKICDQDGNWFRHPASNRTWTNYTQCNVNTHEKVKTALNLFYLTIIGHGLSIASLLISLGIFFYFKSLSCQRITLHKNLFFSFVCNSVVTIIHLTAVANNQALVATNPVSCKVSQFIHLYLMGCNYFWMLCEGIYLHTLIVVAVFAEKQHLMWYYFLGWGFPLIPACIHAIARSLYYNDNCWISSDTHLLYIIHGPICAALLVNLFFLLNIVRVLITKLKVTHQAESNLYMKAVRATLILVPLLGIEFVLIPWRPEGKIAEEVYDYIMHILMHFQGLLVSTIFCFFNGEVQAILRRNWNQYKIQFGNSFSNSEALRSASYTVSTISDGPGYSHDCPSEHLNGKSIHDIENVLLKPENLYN
CGRP receptor, sequence (O60894 27-148): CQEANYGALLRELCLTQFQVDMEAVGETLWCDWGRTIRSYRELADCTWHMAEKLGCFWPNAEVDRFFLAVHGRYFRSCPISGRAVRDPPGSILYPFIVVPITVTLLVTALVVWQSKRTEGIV

O=C(O[C@@H]1Cc2cc(Cl)c3[nH]ncc3c2CN(CC(F)(F)F)C1=O)N1CCC(n2c(=O)[nH]c3ncccc32)CC1
IC50 (Table 1): 0.01 to 10 nM

CC(C)(C)CN1Cc2c(cc(Cl)c3[nH]ccc23)C[C@@H](CC(=O)N2CCC(c3cc4[nH]ccc4[nH]c3=O)CC2)C1=O
IC50 (Table 1): 0.01 to 10 nM

CC(C)(C)CN1Cc2c(cc(Cl)c3[nH]ncc23)C[C@@H](N/C(=N/C#N)N2CCC(c3cc4ccccc4[nH]c3=O)CC2)C1=O
IC50 (Table 2): 0.01 to 10 nM

Cn1ccc2[nH]c(=O)c(C3CCN(C(=O)C[C@@H]4Cc5cc(Cl)c6[nH]ccc6c5CN(CC(C)(C)C)C4=O)CC3)cc21
IC50 (Table 1): 0.01 to 10 nM

O=C(C[C@@H]1Cc2cc(Cl)c3[nH]ncc3c2CN(CC(F)(F)F)C1=O)N1CCC(n2c(=O)[nH]c3c2ccc[n+]3[O-])CC1
IC50 (Table 1): 10 to 100 nM

O=C1NC(=O)C(C2CCN(C(=O)C[C@@H]3Cc4cc(Cl)c5[nH]ncc5c4CN(CC(F)(F)F)C3=O)CC2)N1 (stereo partly shown)
IC50 (Table 1): 100 to 1000 nM

CC(C)(C)CN1Cc2c(cc(Cl)c3[nH]ncc23)C[C@@H](CC(=O)N2CCC(c3cc4ccc(Cl)cc4[nH]c3=O)CC2)C1=O
IC50 (Table 2): 0.01 to 10 nM

N#Cc1cn(C2CCN(C(=O)C[C@@H]3Cc4cc(Cl)c5[nH]ncc5c4CN(CC(F)(F)F)C3=O)CC2)c(=O)[nH]1
IC50 (Table 1): 10 to 100 nM

CC(C)(C)CN1Cc2c(cc(Cl)c3[nH]ncc23)C[C@@H](CC(=O)N2CCC(c3cc4cc(F)c(F)cc4[nH]c3=O)CC2)C1=O
IC50 (Table 2): 10 to 100 nM

O=C(C[C@@H]1Cc2cc(Cl)c3[nH]ncc3c2CN(CC(F)(F)F)C1=O)N1CCC(c2cc3cccc(F)c3[nH]c2=O)CC1
IC50 (Table 2): 0.01 to 10 nM

CC(C)(C)CN1Cc2c(cc(Cl)c3[nH]ccc23)C[C@@H](CC(=O)N2CCC(O)(c3cc(Cl)nc4[nH]ccc34)CC2)C1=O
IC50 (Table 1): 100 to 1000 nM

O=C(C[C@@H]1Cc2cc(Br)c3[nH]nc(Br)c3c2CN(CC(F)(F)F)C1=O)N1CCC(N2CCc3ccccc3NC2=O)CC1
IC50 (Table 1): 0.01 to 10 nM

O=C(C[C@@H]1Cc2cc(Cl)c3[nH]nc(Cl)c3c2CN(CC(F)(F)F)C1=O)N1CCC(N2CCc3ccccc3NC2=O)CC1
IC50 (Table 1): 0.01 to 10 nM

CC(C)(C)CN1Cc2c(cc(Cl)c3[nH]ncc23)C[C@@H](CC(=O)N2CCC(c3cc4cccnc4[nH]c3=O)CC2)C1=O
IC50 (Table 2): 0.01 to 10 nM

O=C1Nc2ccccc2CC1N1CCN(C(=O)N[C@@H]2Cc3ccc4[nH]ncc4c3CN(Cc3ccccc3)C2=O)CC1 (stereo partly shown)
IC50 (Table 2): 100 to 1000 nM

O=C(C[C@@H]1Cc2cc(Cl)c3[nH]ncc3c2CN(CC(F)(F)F)C1=O)N1CCC(N2Cc3ccccc3NC2=O)CC1
IC50 (Table 2): 0.01 to 10 nM

CC(C)(C)CN1Cc2c(cc(Cl)c3[nH]ncc23)C[C@@H](CC(=O)N2CCC(c3cc4scc(Br)c4[nH]c3=O)CC2)C1=O
IC50 (Table 1): 0.01 to 10 nM

Cn1ncc2c3c(cc(Cl)c21)C[C@@H](CC(=O)N1CCC(N2CCc4ccccc4NC2=O)CC1)C(=O)N(CC(F)(F)F)C3
IC50 (Table 1): 0.01 to 10 nM

Cc1cc2c(c3cn[nH]c13)CN(CC(F)(F)F)C(=O)[C@H](CC(=O)N1CCC(c3cc4ccccc4[nH]c3=O)CC1)C2
IC50 (Table 2): 0.01 to 10 nM

CC(C)(C)CN1Cc2c(cc(Cl)c3[nH]ncc23)C[C@@H](CC(=O)N2CCC(c3cc4ccc(F)cc4[nH]c3=O)CC2)C1=O
IC50 (Table 2): 0.01 to 10 nM

CCCn1ncc2c3c(cc(Cl)c21)C[C@@H](CC(=O)N1CCC(N2CCc4ccccc4NC2=O)CC1)C(=O)N(CC(F)(F)F)C3
IC50 (Table 1): 10 to 100 nM

CC(C)(C)CN1Cc2c(cc(Cl)c3[nH]ncc23)C[C@@H](CC(=O)N2CCC(N3Cc4cccnc4NC3=O)CC2)C1=O
IC50 (Table 2): 0.01 to 10 nM

O=C(C[C@@H]1Cc2cc(Cl)c3[nH]ncc3c2CN(CC(F)(F)F)C1=O)N1CCC(N2CCc3ccccc3NC2=O)CC1
IC50 (Table 1): 0.01 to 10 nM

O=C(C[C@@H]1Cc2cc(Cl)c3[nH]ncc3c2CN(CC(F)(F)F)C1=O)N1CCC(n2c(=O)[nH]c3ncccc32)CC1
IC50 (Table 1): 0.01 to 10 nM

O=C(C[C@@H]1Cc2cc(Cl)c3[nH]ncc3c2CN(CC(F)(F)F)C1=O)N1CCC(n2c(=O)[nH]c3ccccc32)CC1
IC50 (Table 1): 0.01 to 10 nM

O=C(N[C@@H]1Cc2cc3cn[nH]c3cc2CN(Cc2ccccc2)C1=O)N1CCC(N2Cc3ccccc3NC2=O)CC1
IC50 (Table 2): 0.01 to 10 nM

O=C(C[C@@H]1Cc2cc(Cl)c3[nH]ncc3c2CN(Cc2ccncc2)C1=O)N1CCC(c2cc3ccccc3c[n+]2[O-])CC1
IC50 (Table 2): 0.01 to 10 nM

COCn1ncc2c3c(cc(Cl)c21)C[C@@H](CC(=O)N1CCC(N2CCc4ccccc4NC2=O)CC1)C(=O)N(CC(F)(F)F)C3
IC50 (Table 1): 10 to 100 nM

O=C(C[C@@H]1Cc2cc(Cl)c3[nH]ncc3c2CN(CC(F)(F)F)C1=O)N1CCC(n2c(=O)[nH]c3c(F)cccc32)CC1
IC50 (Table 1): 0.01 to 10 nM

O=C(C[C@@H]1Cc2cc(Cl)c3c(cnn3Cc3ccccc3)c2CN(CC(F)(F)F)C1=O)N1CCC(n2c(=O)[nH]c3ncccc32)CC1
IC50 (Table 1): 10 to 100 nM

O=C1NC(=O)C2(CCN(C(=O)C[C@@H]3Cc4cc(Cl)c5[nH]ncc5c4CN(CC(F)(F)F)C3=O)CC2)N1
IC50 (Table 1): 10 to 100 nM

O=C(C[C@@H]1Cc2cc(Cl)c3[nH]ncc3c2CN(CC(F)(F)F)C1=O)N1CCC(n2ccn(-c3ccccc3)c2=O)CC1
IC50 (Table 1): 100 to 1000 nM

O=C(C[C@@H]1Cc2cc(Br)c3[nH]nc(Cl)c3c2CN(CC(F)(F)F)C1=O)N1CCC(n2c(=O)[nH]c3ncccc32)CC1
IC50 (Table 1): 0.01 to 10 nM

CC(C)(C)CN1Cc2c(cc(Cl)c3[nH]ncc23)C[C@@H](CC(=O)N2CCC(c3cc4sc(Cl)cc4[nH]c3=O)CC2)C1=O
IC50 (Table 1): 0.01 to 10 nM

O=C(C[C@@H]1Cc2cc(Cl)c3[nH]ncc3c2CN(CC(F)(F)F)C1=O)N1CCC(N2CCN(c3ccccc3F)C2=O)CC1
IC50 (Table 1): > 1000 nM

COCCN1Cc2c(cc(Br)c3[nH]ncc23)C[C@@H](CC(=O)N2CCC(c3cc4ccccc4[nH]c3=O)CC2)C1=O
IC50 (Table 2): 0.01 to 10 nM

CC(C)(C)CN1Cc2c(ccc3[nH]ncc23)CC(N/C(=N/C#N)N2CCC(N3Cc4ccccc4NC3=O)CC2)C1=O (stereo not shown)
IC50 (Table 2): 0.01 to 10 nM

CCn1ncc2c3c(cc(Cl)c21)C[C@@H](CC(=O)N1CCC(n2c(=O)[nH]c4ncccc42)CC1)C(=O)N(CC(F)(F)F)C3
IC50 (Table 1): 10 to 100 nM

CC(C)(C)CN1Cc2c(ccc3[nH]ncc23)C[C@@H](NC(=O)N2CCC3(CC2)CC(=O)Nc2ccccc23)C1=O
IC50 (Table 2): > 1000 nM

O=C(C[C@@H]1Cc2cc(Cl)c3[nH]ncc3c2CN(CC(F)(F)F)C1=O)N1CCC(N2CCc3cccnc3NC2=O)CC1
IC50 (Table 1): 0.01 to 10 nM

CC(C)(C)CN1Cc2c(cc(Cl)c3[nH]ncc23)C[C@@H](CC(=O)N2CCC(c3cc4sc(Br)cc4[nH]c3=O)CC2)C1=O (mixture of isomers)
IC50 (Table 1): 0.01 to 10 nM

O=C(C[C@@H]1Cc2cc(Br)c3[nH]ncc3c2CN(CC(F)(F)F)C1=O)N1CCC(c2cc3cccnc3[nH]c2=O)CC1
IC50 (Table 2): 0.01 to 10 nM

O=C(C[C@@H]1Cc2cc(Cl)c3[nH]nc(Cl)c3c2CN(CC(F)(F)F)C1=O)N1CCC(n2c(=O)[nH]c3ncccc32)CC1
IC50 (Table 1): 0.01 to 10 nM

O=C(C[C@@H]1Cc2cc(Br)c3[nH]ncc3c2CN(CC2CC2)C1=O)N1CCC(c2cc3ccccc3[nH]c2=O)CC1
IC50 (Table 2): 0.01 to 10 nM

O=C(C[C@@H]1Cc2cc(Cl)c3[nH]ncc3c2CN(CC(F)(F)F)C1=O)N1CCC(N2CCc3ncccc3NC2=O)CC1
IC50 (Table 1): 0.01 to 10 nM

CC(C)(C)CN1Cc2c(cc(Cl)c3[nH]ncc23)C[C@@H](CC(=O)Nc2ccc3c(c2)CCC2(C3)NC(=O)NC2=O)C1=O (stereo partly shown)
IC50 (Table 2): 0.01 to 10 nM

O=C(C[C@@H]1Cc2cc(Br)c3[nH]nc(Br)c3c2CN(CC(F)(F)F)C1=O)N1CCC(n2c(=O)[nH]c3ncccc32)CC1
IC50 (Table 1): 0.01 to 10 nM

CC(C)(C)CN1Cc2c(cc(Br)c3[nH]ncc23)C[C@@H](CC(=O)N2CCC(c3cc4ccccc4[nH]c3=O)CC2)C1=O
IC50 (Table 2): 0.01 to 10 nM

O=C1Nc2ccccc2C2(CCN(C(=O)C[C@@H]3Cc4cc(Cl)c5[nH]ncc5c4CN(CC(F)(F)F)C3=O)CC2)N1
IC50 (Table 1): 0.01 to 10 nM

O=C(C[C@@H]1Cc2cc(Cl)c3[nH]ncc3c2CN(CC(F)(F)F)C1=O)N1CCC(c2cc3ccccc3[nH]c2=O)CC1
IC50 (Table 2): 0.01 to 10 nM

O=C(C[C@@H]1Cc2cc(Br)c3[nH]ncc3c2CN(CC(F)(F)F)C1=O)N1CCC(c2cc3ccccc3[nH]c2=O)CC1
IC50 (Table 2): 0.01 to 10 nM

Cc1cc2c(c3cn[nH]c13)CN(CC(C)(C)C)C(=O)[C@H](CC(=O)N1CCC(c3cc4ccccc4[nH]c3=O)CC1)C2
IC50 (Table 2): 0.01 to 10 nM

O=C(O[C@@H]1Cc2cc(Cl)c3[nH]ncc3c2CN(CC(F)(F)F)C1=O)N1CCC(N2CCc3ccccc3NC2=O)CC1
IC50 (Table 1): 0.01 to 10 nM

O=C(C[C@@H]1Cc2cc(Cl)c3[nH]ncc3c2CN(CC(F)(F)F)C1=O)N1CCC(n2cc[nH]c2=O)CC1
IC50 (Table 1): 0.01 to 10 nM

COc1cc2ccccc2cc1C1CCN(C(=O)N[C@@H]2Cc3cc(Cl)c4[nH]ncc4c3CN(CC(C)(C)C)C2=O)CC1
IC50 (Table 2): > 1000 nM

CCc1cc2c(c3cn[nH]c13)CN(CC(F)(F)F)C(=O)[C@H](CC(=O)N1CCC(c3cc4cccc(F)c4[nH]c3=O)CC1)C2
IC50 (Table 2): 10 to 100 nM

Cn1ncc2c3c(cc(Cl)c21)C[C@@H](CC(=O)N1CCC(n2c(=O)[nH]c4ncccc42)CC1)C(=O)N(CC(F)(F)F)C3
IC50 (Table 1): 0.01 to 10 nM

O=C(C[C@@H]1Cc2cc(Cl)c3[nH]nc(Cl)c3c2CN(CCN2CCCCC2)C1=O)N1CCC(n2c(=O)[nH]c3ncccc32)CC1
IC50 (Table 1): 0.01 to 10 nM
